In patent US20090258836A1, “EFFECTIVE DELIVERY OF CROSS-SPECIES A3 ADENOSINE-RECEPTOR ANTAGONISTS TO REDUCE INTRAOCULAR PRESSURE” (The Trustees of The University of Pennsylvania, priority 2006, published 2009):
“Also recorded” adds a separate entry of the source.

Columns and labels:
[1] = Dye penetration into the anterior chamber with or without corneal impalement; format: in vivo, mouse; conditions: 0.003% droplet, 5 min, impaled eyes
Description: Whether drug penetration into the eye was influenced by corneal impalement by a micropipette was further tested by topically applying a […] containing 0.003% carboxyfluorescein ([…]) to both eyes of two mice. Carboxyfluorescein is a highly polar molecule that crosses the barrier layers of the eye poorly. In each mouse, an exploring micropipette was first advanced into the aqueous humor of one eye while the companion eye was not impaled. After 5 min, the dye was washed out with isotonic saline.

human A1 receptors = target: T1, human A1 receptors (Homo sapiens, UniProt P30542); conditions: literature; read-out: Ki for the binding to human A1 receptors; cited from earlier work
T1 sequence (P30542 1-326): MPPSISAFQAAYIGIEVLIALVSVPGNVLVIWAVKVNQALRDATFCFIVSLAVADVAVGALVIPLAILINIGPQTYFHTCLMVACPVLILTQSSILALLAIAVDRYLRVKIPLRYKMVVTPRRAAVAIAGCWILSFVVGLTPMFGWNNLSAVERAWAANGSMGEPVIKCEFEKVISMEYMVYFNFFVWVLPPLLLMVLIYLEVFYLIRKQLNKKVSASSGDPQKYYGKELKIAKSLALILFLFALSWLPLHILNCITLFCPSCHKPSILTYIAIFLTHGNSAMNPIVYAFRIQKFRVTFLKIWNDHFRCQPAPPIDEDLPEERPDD

human A3 receptors = target: T2, human A3 receptors (Homo sapiens, UniProt P0DMS8); conditions: literature; read-out: Ki for the binding to human A3 receptors; cited from earlier work
T2 sequence (P0DMS8 1-318): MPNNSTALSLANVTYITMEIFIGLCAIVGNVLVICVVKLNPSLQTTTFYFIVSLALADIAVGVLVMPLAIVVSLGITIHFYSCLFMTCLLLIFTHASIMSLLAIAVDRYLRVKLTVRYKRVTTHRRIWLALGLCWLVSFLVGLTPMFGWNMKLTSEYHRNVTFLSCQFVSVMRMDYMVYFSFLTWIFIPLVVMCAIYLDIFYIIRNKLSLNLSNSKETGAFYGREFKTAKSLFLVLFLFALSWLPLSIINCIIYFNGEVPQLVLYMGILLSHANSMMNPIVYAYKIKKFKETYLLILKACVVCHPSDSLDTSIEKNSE

human A2A receptors = human A2A receptors (Homo sapiens, UniProt P29274); conditions: literature; read-out: Ki for the binding to human A2A receptors; cited from earlier work
Chain of human A2A receptors (P29274 whole entry): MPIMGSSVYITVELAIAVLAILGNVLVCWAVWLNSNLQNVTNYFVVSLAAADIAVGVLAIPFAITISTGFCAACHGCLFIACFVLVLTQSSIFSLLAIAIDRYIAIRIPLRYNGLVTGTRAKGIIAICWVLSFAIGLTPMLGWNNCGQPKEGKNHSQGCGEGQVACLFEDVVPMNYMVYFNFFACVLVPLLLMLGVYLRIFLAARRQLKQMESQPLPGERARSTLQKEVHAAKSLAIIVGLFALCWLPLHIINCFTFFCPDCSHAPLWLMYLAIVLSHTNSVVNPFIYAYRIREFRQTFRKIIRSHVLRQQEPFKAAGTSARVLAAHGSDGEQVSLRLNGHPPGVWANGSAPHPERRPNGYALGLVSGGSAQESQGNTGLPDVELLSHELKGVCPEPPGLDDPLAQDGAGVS

[2] = test system: HCE (human ciliary epithelial) cell line, NPE cells; assay: Cell volume in isosmotic solution (isosmotic shrinkage), Coulter Counter; format: cell-based; conditions: 10 μM adenosine; 2 min preincubation with 300 nM MRS-1097, 100 nM MRS-1191 or 100 nM MRS-1523
Description: Cell Culture The HCE (human ciliary epithelial) cell line (Carre et al., supra, 1997) is an immortalized NPE cell line obtained from primary cultures of adult human epithelium. […] Eye Res. 57:3057-3063 (1993); Yantorno et al., Exp. Eye Res. 49:423-437 (1989)). […] Cells were passaged every 6-7 days and were studied 8-13 days after passage, after reaching confluence. An immortalized PE-cell line from a primary culture of bovine pigmented ciliary epithelium were also grown under matching conditions. Measurement of Cell Volume in Isosmotic Solution: The volume of PE and NPE cells was measured, since the movement of fluid underlies a change in PE and NPE cell volume, respectively. This is also thought to be the same as the movement of fluid which underlines the secretion of aqueous humor (FIG. 1). […] Parallel aliquots of cells were studied on the same day. One aliquot usually served as a control, and the others were exposed to different experimental conditions at the time of suspension. The same amount of solvent vehicle (dimethylformamide, DMSO or ethanol) was always added to the control and experimental aliquots. […] Cell volumes of isosmotic suspensions were measured with a Coulter Counter (model ZBI-Channelyzer II), using a 100 μm aperture (Civan et al., supra, 1994). As previously described (Wax et al., supra, 1993), the cell volume (vC) of the suspension was taken as the peak of the distribution function. Cell shrinkage was fit as a function of time (t) to a monoexpenential function: […]^0^)/τ] {1) where v∞ is the steady-state cell volume, v0 is the cell volume at the first point (t0) of the time course to be fit, and τ is the time constant of the shrinkage. For purposes of data reduction, the data were normalized to the first time point, taken to be 100% isotonic volume. Fits were obtained by nonlinear least-squares regression analysis, permitting both v∞ and τ to be variables. […] Med. Chem. 37:636-646 (1994; Jacobson et al., supra, 1995; Jacobson et al., FEBS Lett. 336:57-60 (1993)).

mouse IOP [3] = assay: Mouse IOP after topical application, invasive servo-null micropipette system (SNMS); format: in vivo, Black Swiss mice
Description: (§1) The test animals were black Swiss outbred mice of mixed sex, 7-9 weeks old and 25-30 g in weight, obtained from Taconic Inc. (Germantown, N.Y.), and maintained under 12:12-h light/dark illumination cycle and allowed unrestricted access to food and water. Mice were anesthetized with intraperitoneal ketamine ([…]) supplemented by topical proparacaine HCl 0.5% (Allergan, Bausch & Lomb) for the IOP measurements. IOP was measured invasively (SNMS) and non-invasively by pneumotonometry in separate animals.
By the SNMS approach (Avila et al., supra, 2001), the exploring micropipette, of […] outer diameter, was filled with a highly conducting solution and advanced across the cornea into the anterior chamber. A refined technique by Wang et al., Invest. Opthalmol. Vis. Sci. (serial online) (Aug. 31, 2006) available at www.iovs.org/egi/letters/46/9/3274#422, enhanced stability and reduce the background noise of the records, permitting fabrication of micropipettes whose resistance is 0.1-0.3 MΩ, rather than the 0.25-0.4 MΩ used initially. The filling solution was reduced from 3M KCl to 2M NaCl, rather than 3 M KCl. The resistance of the filled micropipette was balanced in a bridge circuit, and the tip was then advanced across the cornea. Upon entering the anterior chamber of the eye, the IOP forces the much lower-conducting aqueous humor into the micropipette tip, displacing the original filling solution. The micropipette resistance was thereby increased, unbalancing the bridge circuit and triggering a bellows to provide a counter-pressure, restoring the position of the filling solution and returning the resistance to its initial value. Thus, the value of the counter-pressure equals the IOP. As in the past (Avila et al., supra, 2001), the stability of the records permitted continuous measurements for tens of minutes during the course of drug applications.
(§2) Ketamine HCl was purchased from Phoenix Pharmaceutical Inc. (St. Joseph, Mo.). Other drugs were obtained from Sigma Chemical (St. Louis, Mo.). Drugs were applied topically with an Eppendorf pipette. […] The final droplet solution contained the drugs at the stated concentrations together with <2% DMSO and 0.0005% benzalkonium chloride at an osmolality of 295-300 mOsm. DMSO was omitted, altogether, from droplets containing the hydrophilic compounds adenosine, carbachol and carboxyfluorescein.
(§3) Effects on invasively-measured IOP were measured 10 min after topical application because after this time, the continued presence of the micropipette can be associated with a downward drift of the IOP, even under control conditions. In contrast, smaller droplets ([…]) were applied to the eye more frequently (three times instead of once) with the non-invasive technique, in order to forestall drying of the eye associated with the airflow from the pneumotonometer. With the non-invasive protocol, the IOP was stable for 30 min under control conditions.
In Table 1, an endpoint of 10 minutes was used for the invasive measurements in light of the above-discussed downward drift of the IOP, even under control conditions. Also the need for smaller, more frequent droplets are discussed above with regard to the non-invasive technique using the pneumotonometer. As above, with the non-invasive protocol, the IOP was stable for 30 minutes under control conditions.

mouse IOP [4] = assay: Mouse IOP after topical application, non-invasive pneumotonometry; format: in vivo, Black Swiss mice
Description: as §1
By comparison, IOP was measured non-invasively by pneumotonometry (OBT) (Avila et al., supra, 2005). As previously described, the commercially available tip of the ocular blood tomography (OBT) pneumotonometer (Blood Flow Analyzer [BFA] probe tip; Paradigm Medical Industries Inc.) was fit to a custom-built mount. Air flow from a constant pressure source was passed through the mount to reach a diaphragm forming the end of the BFA tip. The flow of air displaces the diaphragm outward, permitting escape of the air through holes in the wall of the probe tip into the atmosphere. Pressure was monitored with a transducer connected through a T-connection to the base of the BFA tip. The probe assembly was advanced to the cornea with a three-axis micromanipulator. The probe tip was advanced sufficiently to make contact with the tear film, as was indicated by a shift in the baseline output reading. In a refined method, the tip was withdrawn until the […] was visually displaced from the tear film. The output was then adjusted to zero before advancing the tip again. Contact with the cornea depresses the diaphragm of the BFA tip, occluding access of the air flow to the escape holes and raising the pressure at the base of the tip.
This approach was simplified to expedite identification of the endpoint, and the probe was subsequently advanced in about 10 standardized steps of approximately […] at intervals of about 10 seconds to identify the inflection region (Wang et al., supra, 2006). […] The pneumotonometric estimates of IOP were previously found to agree with manometric measurements in cannulated preparations and with estimates obtained by the servo-null technique (Avila et al., supra, 2005). Having established the baseline value of IOP, the position along the axis of advance of the micromanipulator was noted, and the probe was retracted from contact with the cornea. Subsequent measurements of IOP at later time points were obtained by advancing the probe tip to the same position, with the placement of the mouse maintained stereotactically. The measurements were conducted at 10-min intervals to avoid potential artifacts associated with prolonged pressure on the cornea.
as §2, §3
In Table 1, an endpoint of 10 minutes was used for the invasive measurements in light of the above-discussed downward drift of the IOP, even under control conditions. […]

[5] = test system: HCE (human ciliary epithelial) cell line, NPE cells; conditions: Civan et al.; read-out: EC50 of isosmotic shrinkage of cultured human NPE cells; cited from earlier work
cultured human NPE cells = conditions: cited from earlier work

carboxyfluorescein
fluorescence in the anterior chamber [1]: Green fluorescence was observed in the anterior chamber of the impaled mouse eyes

CCCOC(=O)c1c(-c2ccccc2)nc(CC)c(C(=O)SCC)c1CCC [MRS-1523]
Ki (human A1 receptors): 15600 nM
Ki (human A3 receptors): 19 nM
Ki (human A2A receptors): 2050 nM
effect of A3 antagonist on adenosine-stimulated isotonic shrinkage of NPE cells [2]: prevented the characteristic shrinkage; also recorded: blocked the shrinkage; also recorded: eliminated the actions of adenosine
effect on IOP in the mouse (in words) (mouse IOP [3]; tested by the inventors, technique not given): found to lower IOP in the mouse

Nc1ncnc2c1ncn2[C@@H]1O[C@H](CO)[C@@H](O)[C@H]1O [Adenosine, adenosine]
delay of the increase in IOP when measured non-invasively (mouse IOP [4]; topical): about 10 minutes
Δ(IOP) Pneumotonometer (mouse IOP [4]; topical droplets 10 mM, 30 min): +4.8 ± 1.7 mm Hg
EC50 [5]: 3000 to 10000 nM
time constant (τ) of the adenosine-triggered shrinkage (cultured human NPE cells; 10 μM adenosine without antagonist): 3.8 ± 0.6 min
degree of shrinkage relative to control (cultured human NPE cells; 10 μM): increased the degree of shrinkage several-fold
increase in IOP over baseline (mouse IOP [3]; SNMS, after 10 min, adenosine 10 mM, Cl-IB-MECA 200 nM droplet): 24.0±4.7 mmHg
Δ(IOP) Servo-Null (mouse IOP [3]; topical droplet 10 mM, endpoint 10 min): +22.4 ± 6.5 mm Hg
